Measured values as given in US8785457B2 (Cellzome Limited, priority 2009, dated 2014).
Read-outs that look alike come from different tables or passages of the source.

What was measured:
PI3 Kbeta (PI3 Kb) = target: T1, PI3 Kbeta (PI3 Kb) (Homo sapiens, UniProt P42338); experiment: kinobeads assay, PI3Kbeta; type: binding; conditions: kinobeads assay, Table 6; read-out: Inhibition values (IC50) PI3Kb
T1 construct: endogenous in cells; host or cells: cell lysate
Outline: (§1)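 In this bead competition format, compound and immobilized phenylmorpholin-chromen ligand compete for kinases in cell lysate. Eluted captured kinases were measured by multiplexed immunodetection, and IC50 was calculated.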

mTOR = target: T2, mTOR (Homo sapiens, UniProt P42345); experiment: mTOR kinobeads assay (competitive binding in Jurkat cell lysate, immunodetection)
T2 construct: endogenous in cells; host or cells: Jurkat, clone E6-1 (ATCC TIB-152) cell lysate
Outline: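 IC50 derived from dose-response curves of mTOR captured on immobilized phenylmorpholin-chromen beads, detected by antibody dot blot with infrared fluorescence.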

PI3Kalpha (PI3Ka) = target: T3, PI3Kalpha (PI3Ka) (Homo sapiens, UniProt P42336); experiment: kinobeads assay, PI3Kalpha; type: binding; conditions: kinobeads assay, Table 6; for IC50: read-out: Inhibition values (IC50) PI3Ka
T3 construct: endogenous in cells; host or cells: cell lysate
T3 sequence (P42336 whole entry): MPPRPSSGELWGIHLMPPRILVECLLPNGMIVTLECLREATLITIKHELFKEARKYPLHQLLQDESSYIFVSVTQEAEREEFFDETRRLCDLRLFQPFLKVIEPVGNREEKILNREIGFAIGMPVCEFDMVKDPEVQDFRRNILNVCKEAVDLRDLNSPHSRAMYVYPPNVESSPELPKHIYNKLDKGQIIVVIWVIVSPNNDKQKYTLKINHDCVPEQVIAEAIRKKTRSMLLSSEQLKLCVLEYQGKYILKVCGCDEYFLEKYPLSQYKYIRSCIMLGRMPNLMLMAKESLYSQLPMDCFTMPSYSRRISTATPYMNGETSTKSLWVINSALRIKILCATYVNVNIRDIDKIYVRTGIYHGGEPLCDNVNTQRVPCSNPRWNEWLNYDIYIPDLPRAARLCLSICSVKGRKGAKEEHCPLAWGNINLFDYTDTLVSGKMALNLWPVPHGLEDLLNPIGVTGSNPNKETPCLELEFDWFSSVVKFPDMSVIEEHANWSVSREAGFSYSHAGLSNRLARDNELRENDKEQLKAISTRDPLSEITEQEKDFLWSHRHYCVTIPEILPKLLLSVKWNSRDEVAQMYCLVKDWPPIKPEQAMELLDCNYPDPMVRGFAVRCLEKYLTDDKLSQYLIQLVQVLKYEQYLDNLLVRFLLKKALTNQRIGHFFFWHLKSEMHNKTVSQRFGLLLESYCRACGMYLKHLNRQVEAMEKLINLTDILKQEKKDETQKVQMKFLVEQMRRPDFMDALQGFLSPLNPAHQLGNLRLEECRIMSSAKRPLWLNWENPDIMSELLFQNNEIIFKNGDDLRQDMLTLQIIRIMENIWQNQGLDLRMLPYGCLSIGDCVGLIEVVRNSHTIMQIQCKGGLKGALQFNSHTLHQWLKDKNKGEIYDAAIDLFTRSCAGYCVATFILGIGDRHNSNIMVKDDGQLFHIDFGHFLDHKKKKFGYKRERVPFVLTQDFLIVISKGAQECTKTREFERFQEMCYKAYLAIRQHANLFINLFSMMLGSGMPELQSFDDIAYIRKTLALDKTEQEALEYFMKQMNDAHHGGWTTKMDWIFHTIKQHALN
T3 sequence (P27986 whole entry partner): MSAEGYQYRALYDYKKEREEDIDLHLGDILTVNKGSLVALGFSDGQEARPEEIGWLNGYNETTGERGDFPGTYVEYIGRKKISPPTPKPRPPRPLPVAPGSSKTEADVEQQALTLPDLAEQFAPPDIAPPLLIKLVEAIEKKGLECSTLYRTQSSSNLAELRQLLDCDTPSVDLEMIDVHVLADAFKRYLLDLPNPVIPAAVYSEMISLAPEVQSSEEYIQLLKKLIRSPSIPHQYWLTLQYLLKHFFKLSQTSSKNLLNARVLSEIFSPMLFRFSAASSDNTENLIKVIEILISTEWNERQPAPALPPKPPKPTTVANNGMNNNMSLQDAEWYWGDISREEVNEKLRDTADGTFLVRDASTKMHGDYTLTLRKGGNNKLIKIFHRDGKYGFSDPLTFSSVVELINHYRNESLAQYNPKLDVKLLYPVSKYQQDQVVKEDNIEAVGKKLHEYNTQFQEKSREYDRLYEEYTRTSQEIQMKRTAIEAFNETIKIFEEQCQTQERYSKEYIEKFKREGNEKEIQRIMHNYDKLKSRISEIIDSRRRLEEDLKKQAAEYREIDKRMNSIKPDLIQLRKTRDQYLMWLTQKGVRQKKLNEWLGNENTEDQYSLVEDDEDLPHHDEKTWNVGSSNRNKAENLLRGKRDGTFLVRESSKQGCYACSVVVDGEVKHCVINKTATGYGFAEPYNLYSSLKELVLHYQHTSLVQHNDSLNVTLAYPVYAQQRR
Outline: as §1

PI3 Kgamma (PI3 Kg) = target: T4, PI3 Kgamma (PI3 Kg) (Homo sapiens, UniProt P48736); experiment: kinobeads assay, PI3Kgamma; type: binding; conditions: kinobeads assay, Table 6; read-out: Inhibition values (IC50) PI3Kg
T4 construct: endogenous in cells; host or cells: cell lysate
T4 sequence (P48736 whole entry): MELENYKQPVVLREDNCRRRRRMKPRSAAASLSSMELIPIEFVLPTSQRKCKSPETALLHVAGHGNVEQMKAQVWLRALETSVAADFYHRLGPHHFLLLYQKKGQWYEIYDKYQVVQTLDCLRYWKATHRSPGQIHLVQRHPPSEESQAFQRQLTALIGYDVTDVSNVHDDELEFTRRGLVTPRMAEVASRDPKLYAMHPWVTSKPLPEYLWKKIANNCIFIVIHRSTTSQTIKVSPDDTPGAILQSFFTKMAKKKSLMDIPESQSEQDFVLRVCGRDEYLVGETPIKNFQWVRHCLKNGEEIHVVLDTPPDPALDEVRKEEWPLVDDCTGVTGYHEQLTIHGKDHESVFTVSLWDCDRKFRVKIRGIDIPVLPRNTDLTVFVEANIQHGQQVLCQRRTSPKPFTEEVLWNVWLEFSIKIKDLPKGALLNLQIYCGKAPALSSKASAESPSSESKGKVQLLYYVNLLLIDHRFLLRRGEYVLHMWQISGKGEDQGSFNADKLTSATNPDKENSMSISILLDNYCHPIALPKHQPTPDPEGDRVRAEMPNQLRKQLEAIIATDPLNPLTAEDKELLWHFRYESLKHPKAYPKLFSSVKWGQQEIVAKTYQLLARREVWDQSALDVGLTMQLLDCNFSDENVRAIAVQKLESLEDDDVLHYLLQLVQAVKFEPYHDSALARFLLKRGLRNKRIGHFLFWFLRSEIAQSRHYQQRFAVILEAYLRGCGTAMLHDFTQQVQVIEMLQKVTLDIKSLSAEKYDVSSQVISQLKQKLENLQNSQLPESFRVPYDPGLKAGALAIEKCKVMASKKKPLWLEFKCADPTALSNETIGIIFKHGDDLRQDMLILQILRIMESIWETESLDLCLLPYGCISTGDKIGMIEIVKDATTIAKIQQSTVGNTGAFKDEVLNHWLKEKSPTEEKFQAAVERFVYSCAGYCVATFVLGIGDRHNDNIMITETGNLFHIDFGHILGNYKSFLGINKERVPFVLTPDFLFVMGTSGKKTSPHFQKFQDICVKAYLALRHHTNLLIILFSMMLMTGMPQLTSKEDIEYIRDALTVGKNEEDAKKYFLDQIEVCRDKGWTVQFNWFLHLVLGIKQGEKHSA
Outline: as §1

[1] = kinobeads assay, Table 4, read-out: Inhibition values (IC50) mTor
[2] = kinobeads assay, Table 6, read-out: Inhibition values (IC50) mTOR

T1 sequence (P42338 whole entry): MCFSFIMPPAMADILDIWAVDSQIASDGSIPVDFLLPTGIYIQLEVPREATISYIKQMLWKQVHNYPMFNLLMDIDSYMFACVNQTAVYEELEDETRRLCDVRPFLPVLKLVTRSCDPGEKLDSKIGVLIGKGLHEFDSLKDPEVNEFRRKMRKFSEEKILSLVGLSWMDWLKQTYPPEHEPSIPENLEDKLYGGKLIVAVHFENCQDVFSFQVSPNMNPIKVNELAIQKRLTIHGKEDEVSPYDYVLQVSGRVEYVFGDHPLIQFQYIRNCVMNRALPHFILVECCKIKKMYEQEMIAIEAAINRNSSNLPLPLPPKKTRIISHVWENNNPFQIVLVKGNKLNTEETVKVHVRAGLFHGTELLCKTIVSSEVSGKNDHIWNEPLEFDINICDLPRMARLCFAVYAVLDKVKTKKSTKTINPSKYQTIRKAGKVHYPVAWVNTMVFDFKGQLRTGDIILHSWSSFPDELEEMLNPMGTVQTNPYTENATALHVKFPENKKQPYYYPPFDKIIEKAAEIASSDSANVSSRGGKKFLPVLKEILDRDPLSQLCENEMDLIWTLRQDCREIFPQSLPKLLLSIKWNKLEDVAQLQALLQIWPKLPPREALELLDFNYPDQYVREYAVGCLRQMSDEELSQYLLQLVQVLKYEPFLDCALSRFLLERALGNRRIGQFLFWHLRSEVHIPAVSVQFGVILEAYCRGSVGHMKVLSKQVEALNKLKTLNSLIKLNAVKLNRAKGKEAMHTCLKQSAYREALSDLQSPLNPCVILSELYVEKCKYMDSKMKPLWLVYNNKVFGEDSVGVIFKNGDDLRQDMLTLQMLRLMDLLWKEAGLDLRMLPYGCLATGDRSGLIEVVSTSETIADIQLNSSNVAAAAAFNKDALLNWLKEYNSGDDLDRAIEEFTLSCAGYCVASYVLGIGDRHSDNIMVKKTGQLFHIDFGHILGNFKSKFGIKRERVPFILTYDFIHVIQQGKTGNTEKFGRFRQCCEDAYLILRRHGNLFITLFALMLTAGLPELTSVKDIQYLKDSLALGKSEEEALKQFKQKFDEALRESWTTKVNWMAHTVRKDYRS
T1 sequence (P27986 whole entry partner): as the sequence (P27986 whole entry partner) above

| IC50 (PI3 Kbeta (PI3 Kb)) | IC50 (mTOR; [1]) | IC50 (mTOR; [2]) | Inhibition values (IC50) PI3Ka (PI3Kalpha (PI3Ka)) | IC50 (PI3 Kgamma (PI3 Kg)) | IC50 (PI3Kalpha (PI3Ka)) | IC50 (mTOR; Further Kinobeads Data, read-out: mTor) | SMILES |
| --- | --- | --- | --- | --- | --- | --- | --- |
| > 10000 nM | 100 to 1000 nM | 100 to 1000 nM | D (D >10 μM) | > 10000 nM |  |  | CCNC(=O)Nc1ccc(-c2nc3c(c(N4CCOC[C@@H]4C)n2)CN(C(=O)c2ccc(F)cc2)C3)cc1 [Example 19, (S)-1-ethyl-3-(4-(6-(4-fluorobenzoyl)-4-(3-methylmorpholino)-6,7-dihydro-5H-pyrrolo[3,4-d]pyrimidin-2-yl)phenyl)urea] |
| > 10000 nM | < 100 nM | < 100 nM |  | > 10000 nM | 1000 to 10000 nM |  | CCNC(=O)Nc1ccc(-c2nc3c(c(N4CCOC[C@@H]4C)n2)CN(C(=O)C(C)C)C3)cc1 [Example 21, (S)-1-ethyl-3-(4-(6-isobutyryl-4-(3-methylmorpholino)-6,7-dihydro-5H-pyrrolo[3,4-d]pyrimidin-2-yl)phenyl)urea] |
| > 10000 nM | 100 to 1000 nM | 100 to 1000 nM | D (D >10 μM) | > 10000 nM |  |  | CCNC(=O)Nc1ccc(-c2nc3c(c(N4CCOC[C@@H]4C)n2)CCN(C(=O)c2ccc(F)cc2)C3)cc1 [Example 24, (S)-1-ethyl-3-(4-(7-(4-fluorobenzoyl)-4-(3-methylmorpholino)-5,6,7,8-tetrahydropyrido[3,4-d]pyrimidin-2-yl)phenyl)urea] |
| 1000 to 10000 nM | < 100 nM | < 100 nM |  | 1000 to 10000 nM | 1000 to 10000 nM |  | CCNC(=O)Nc1ccc(-c2nc3c(c(N4CCOC[C@@H]4C)n2)CCN(CC)C3)cc1 [Example 27, (S)-1-ethyl-3-(4-(7-ethyl-4-(3-methylmorpholino)-5,6,7,8-tetrahydropyrido[3,4-d]pyrimidin-2-yl)phenyl)urea] |
| > 10000 nM | < 100 nM | < 100 nM | D (D >10 μM) | > 10000 nM |  |  | CCNC(=O)Nc1ccc(-c2nc3c(c(N4CCOC[C@@H]4C)n2)CN(CC2CC2)C3)cc1 [Example 28, (S)-1-(4-(6-(cyclopropylmethyl)-4-(3-methylmorpholino)-6,7-dihydro-5H-pyrrolo[3,4-d]pyrimidin-2-yl)phenyl)-3-ethylurea] |
|  | < 100 nM | < 100 nM |  |  |  |  | CCNC(=O)N1Cc2nc(-c3ccc(NC(=O)NC4CC4)cc3)nc(N3CCOC[C@@H]3C)c2C1 [Example 33, (S)-2-(4-(3-cyclopropylureido)phenyl)-N-ethyl-4-(3-methylmorpholino)-5H-pyrrolo[3,4-d]pyrimidine-6(7H)-carboxamide] |
| > 10000 nM | < 100 nM | < 100 nM | D (D >10 μM) | > 10000 nM |  |  | CCNC(=O)Nc1ccc(-c2nc3c(c(N4CCOC[C@@H]4C)n2)CCN(C)C3)cc1 [Example 35, (S)-1-ethyl-3-(4-(7-methyl-4-(3-methylmorpholino)-5,6,7,8-tetrahydropyrido[3,4-d]pyrimidin-2-yl)phenyl)urea] |
|  | < 100 nM | < 100 nM |  |  |  |  | CCN1Cc2nc(-c3ccc(NC(=O)NC4CC4)cc3)nc(N3CCOC[C@@H]3C)c2C1 [Example 36, (S)-1-cyclopropyl-3-(4-(6-ethyl-4-(3-methylmorpholino)-6,7-dihydro-5H-pyrrolo[3,4-d]pyrimidin-2-yl)phenyl)urea] |
|  | < 100 nM | < 100 nM |  |  |  |  | C[C@H]1COCCN1c1nc(-c2ccc(NC(=O)NC3CC3)cc2)nc2c1CN(C)C2 [Example 38, (S)-1-cyclopropyl-3-(4-(6-methyl-4-(3-methylmorpholino)-6,7-dihydro-5H-pyrrolo[3,4-d]pyrimidin-2-yl)phenyl)urea] |
|  | < 100 nM | < 100 nM |  |  |  |  | CC(C)C(=O)N1Cc2nc(-c3ccc(NC(=O)NC4CC4)cc3)nc(N3CCOC[C@@H]3C)c2C1 [Example 44, (S)-1-cyclopropyl-3-(4-(6-isobutyryl-4-(3-methylmorpholino)-6,7-dihydro-5H-pyrrolo[3,4-d]pyrimidin-2-yl)phenyl)urea] |
|  | < 100 nM | < 100 nM |  |  |  |  | CNC(=O)Nc1ccc(-c2nc3c(c(N4CCOC[C@@H]4C)n2)CN(CC2CC2)C3)cc1 [Example 47, (S)-1-(4-(6-(cyclopropylmethyl)-4-(3-methylmorpholino)-6,7-dihydro-5H-pyrrolo[3,4-d]pyrimidin-2-yl)phenyl)-3-methylurea] |
|  | 100 to 1000 nM | 100 to 1000 nM |  |  |  |  | C[C@H]1COCCN1c1nc(-c2ccc(NC(N)=O)cc2)nc2c1CN(CC1CC1)C2 [Example 48, (S)-1-(4-(6-(cyclopropylmethyl)-4-(3-methylmorpholino)-6,7-dihydro-5H-pyrrolo[3,4-d]pyrimidin-2-yl)phenyl)urea] |
|  | 100 to 1000 nM | 100 to 1000 nM |  |  |  |  | CCCNC(=O)Nc1ccc(-c2nc3c(c(N4CCOC[C@@H]4C)n2)CN(CC2CC2)C3)cc1 [Example 49, (S)-1-(4-(6-(cyclopropylmethyl)-4-(3-methylmorpholino)-6,7-dihydro-5H-pyrrolo[3,4-d]pyrimidin-2-yl)phenyl)-3-propylurea] |
|  | 100 to 1000 nM | 100 to 1000 nM |  |  |  |  | C[C@H]1COCCN1c1nc(-c2ccc(NC(=O)NC3CCC3)cc2)nc2c1CN(C)C2 [Example 55, (S)-1-cyclobutyl-3-(4-(6-methyl-4-(3-methylmorpholino)-6,7-dihydro-5H-pyrrolo[3,4-d]pyrimidin-2-yl)phenyl)urea] |

The next lines start with the compound.

| SMILES | IC50 (PI3 Kbeta (PI3 Kb)) | IC50 (mTOR; [1]) | IC50 (mTOR; [2]) | Inhibition values (IC50) PI3Ka (PI3Kalpha (PI3Ka)) | IC50 (PI3 Kgamma (PI3 Kg)) | IC50 (PI3Kalpha (PI3Ka)) | IC50 (mTOR; Further Kinobeads Data, read-out: mTor) |
| --- | --- | --- | --- | --- | --- | --- | --- |
| CCNC(=O)Nc1ccc(-c2nc3c(c(N4CCOC[C@@H]4C)n2)CN(C(=O)C2CC2)C3)cc1 [Example 23, (S)-1-(4-(6-(cyclopropanecarbonyl)-4-(3-methylmorpholino)-6,7-dihydro-5H-pyrrolo[3,4-d]pyrimidin-2-yl)phenyl)-3-ethylurea] | > 10000 nM | < 100 nM | < 100 nM |  | > 10000 nM | 1000 to 10000 nM |  |
| C[C@H]1COCCN1c1nc(-c2ccc(NC(=O)NC3CC3)cc2)nc2c1CN(CC(C)(C)C)C2 [Example 25, (S)-1-cyclopropyl-3-(4-(4-(3-methylmorpholino)-6-neopentyl-6,7-dihydro-5H-pyrrolo[3,4-d]pyrimidin-2-yl)phenyl)urea] | > 10000 nM | 100 to 1000 nM | 100 to 1000 nM | D (D >10 μM) | > 10000 nM |  |  |
| CCNC(=O)Nc1ccc(-c2nc3c(c(N4CCOC[C@@H]4C)n2)CN(Cc2ccc(F)cc2)C3)cc1 [Example 29, (S)-1-ethyl-3-(4-(6-(4-fluorobenzyl)-4-(3-methylmorpholino)-6,7-dihydro-5H-pyrrolo[3,4-d]pyrimidin-2-yl)phenyl)urea] | > 10000 nM | 100 to 1000 nM | 100 to 1000 nM | D (D >10 μM) | > 10000 nM |  |  |
| CCOC(=O)N1Cc2nc(-c3ccc(NC(=O)NC4CC4)cc3)nc(N3CCOC[C@@H]3C)c2C1 [Example 34, (S)-ethyl 2-(4-(3-cyclopropylureido)phenyl)-4-(3-methylmorpholino)-5H-pyrrolo[3,4-d]pyrimidine-6(7H)-carboxylate] | > 10000 nM | < 100 nM | < 100 nM | D (D >10 μM) | > 10000 nM |  |  |
| CCNC(=O)Nc1ccc(-c2nc3c(c(N4CCOC[C@@H]4C)n2)CCN(CC2CC2)C3)cc1 [Example 37, (S)-1-(4-(7-(cyclopropylmethyl)-4-(3-methylmorpholino)-5,6,7,8-tetrahydropyrido[3,4-d]pyrimidin-2-yl)phenyl)-3-ethylurea] | > 10000 nM | < 100 nM | < 100 nM | D (D >10 μM) | > 10000 nM |  |  |
| CCNC(=O)Nc1ccc(-c2nc3c(c(N4CCOC[C@@H]4C)n2)CN(CC)C3)cc1 [Example 39, (S)-1-ethyl-3-(4-(6-ethyl-4-(3-methylmorpholino)-6,7-dihydro-5H-pyrrolo[3,4-d]pyrimidin-2-yl)phenyl)urea] |  | < 100 nM | < 100 nM |  |  |  |  |
| C[C@H]1COCCN1c1nc(-c2ccc(NC(=O)NC3CC3)cc2)nc2c1CCN(CC1CC1)C2 [Example 40, (S)-1-cyclopropyl-3-(4-(7-(cyclopropylmethyl)-4-(3-methylmorpholino)-5,6,7,8-tetrahydropyrido[3,4-d]pyrimidin-2-yl)phenyl)urea] | 1000 to 10000 nM | < 100 nM | < 100 nM |  | 1000 to 10000 nM | 1000 to 10000 nM |  |
| CC(C)N1Cc2nc(-c3ccc(NC(=O)NC4CC4)cc3)nc(N3CCOC[C@@H]3C)c2C1 [Example 46, (S)-1-cyclopropyl-3-(4-(6-isopropyl-4-(3-methylmorpholino)-6,7-dihydro-5H-pyrrolo[3,4-d]pyrimidin-2-yl)phenyl)urea] |  | < 100 nM | < 100 nM |  |  |  |  |
| CC(C)NC(=O)Nc1ccc(-c2nc3c(c(N4CCOC[C@@H]4C)n2)CN(CC2CC2)C3)cc1 [Example 50, (S)-1-(4-(6-(cyclopropylmethyl)-4-(3-methylmorpholino)-6,7-dihydro-5H-pyrrolo[3,4-d]pyrimidin-2-yl)phenyl)-3-isopropylurea] |  | 100 to 1000 nM | 100 to 1000 nM |  |  |  |  |
| COC(=O)N1Cc2nc(-c3ccc(NC(=O)NCCF)cc3F)nc(N3CCOCC3)c2C1 [Example 169, Methyl 2-(2-fluoro-4-(3-(2-fluoroethyl)ureido)phenyl)-4-morpholino-5H-pyrrolo[3,4-d]pyrimidine-6(7H)-carboxylate] |  |  |  |  |  |  | < 100 nM |
